This is an account of results in publication PMC8747035, “Design, Synthesis, and Biological Evaluation of 5,6,7,8-Tetrahydrobenzo[4,5]thieno[2,3-d]pyrimidines as Microtubule Targeting Agents” (Molecules, 2022).

Where two headings read alike, the source gives them in different places.

For one data set, the system named is tubulin. The note with it: compound at 5 μM; cited from earlier work.
In the next data set the test system is A-10 cells. The note with it: read-out: EC50 for Microtubule Depolymerization in A-10 Cells; cited from earlier work.
Data set [1] has as its system SK-OV-3 cells. To be noted: read-out: IC50 ± SD in SK-OV-3 Cells; cited from earlier work.
The next data set deals with MDA-MB-435 cells. To be noted: SRB assay, antiproliferative; read-out: IC50 ± SD in MDA-435 Cells; cited from earlier work. A general note: The SRB assay estimates cell density from bound dye.
Data set [2] relates to HeLa WTβIII cells. To be noted: read-out: IC50 ± SD in HeLa WTβ3; cited from earlier work.
A further data set concerns Bovine brain tubulin. To be noted: read-out: Inhibition of Tubulin Assembly IC50 ± SD; cited from earlier work.
For data set [3], the system named is HeLa cells. The note with it: read-out: IC50 ± SD in HeLa; cited from earlier work.
The test system of another data set is SK-OV-3 MDR1-M6/6 cells. The note with it: read-out: IC50 ± SD in SK-OV-3 MDR1-M6/6 Cells; cited from earlier work.
The test system of data set [4] is HeLa WTβIII cells. Put plainly: SRB assay in βIII-tubulin expressing HeLa WTβIII cells. Format: cell-based. The note with it: Homo sapiens, read-out: IC50 ± SD in HeLa WTβ3. As to the method: (§1) Compounds 4–8, 10, 12, and 13 were evaluated for their abilities to overcome βIII-tubulin mediated drug resistance using an isogenic HeLa cell line pair (Table 4). […] The Rr values (Table 4) were calculated by dividing the IC50 of the βIII-tubulin expressing line by the IC50 obtained in the parental HeLa cells.
(§2) The antiproliferative and cytotoxic effects of the compounds in cancer cells were evaluated using the SRB assay as previously described. MDA-MB-435 cells were obtained from the Lombardi Cancer Center of Georgetown University (Washington, DC, USA). SK-OV-3 and HeLa cells were purchased from ATCC. Details about the generation of the SK-OV-3 MDR1-M6/6 and HeLa WTβIII cells were described previously. The IC50 values represent an average of three independent experiments, each conducted using triplicate points.
(§3) HeLa, A-10, SK-OV-3, and SK-OV-3 MDR1-M6/6 cells were grown in Basal Medium Eagle (Sigma-Aldrich, St. Louis, MO, USA) supplemented with 10% FBS (Hyclone, GE Life Sciences, Logan, UT, USA) 1% GlutaMAX (Gibco, Life Technologies, Waltham, MA, USA) and 50 µg/mL gentamycin (Life Technologies, USA). HeLa WTβIII cells were grown in Dulbecco’s Modified Eagle Medium (Life Technologies) supplemented with 10% FBS and 50 µg/mL gentamycin. MDA-MB-435 cells were maintained in Improved Minimum Essential Medium (Life Technologies) supplemented with 10% FBS and 25 µg/mL gentamycin. All cells were grown at 37 °C in a humidified environment with 5% CO2.

Another data set deals with MDA-MB-435 tumors. Put plainly: MDA-MB-435 xenograft model. The data set is classed as in vivo, nude mice. The note with it: 15 mg/kg i.p. 3 times a week. The protocol: Compound 4 was selected for further evaluation in an in vivo xenograft mouse study in light of its nanomolar potency in vitro in the NCI-60 cancer cell line panel and its potent microtubule depolymerization activity. The in vivo effects of 4 were tested in the MDA-MB-435 xenograft model (Figure 5).
MDA-MB-435 tumor fragments were implanted s.c. into the flanks of female nude mice. […] Compound 4 was dissolved in a 50:50 Cremophor EL/DMSO mixture and further dissolved in PBS for a final concentration of 10:10:80 Cremophor EL:DMSO:PBS (v/v). […] Tumor volumes and mouse weights were measured 2–3 times a week. A two-way ANOVA with Dunnett’s post-hoc tests including all treatment groups in the trial was used to determine significant differences in tumor volumes between drug-treated and untreated control groups on each measurement day. These animal studies were performed at the University of Texas Health Science Center in San Antonio in compliance with an approved Institutional Animal Care and Use protocol.
MDA-MB-435 tumors were implanted into the flanks of nude mice and allowed to grow until they reached a volume of ~200 mm^3. […] Tumor volumes and mouse weights were measured 2–3 times a week. Statistical significance was evaluated by two-way ANOVA (time vs. drug) with Dunnett’s post-hoc tests. A statistically significant difference in tumor volume was detected on day 14 between mice treated with 4 (* p = 0.0384) and untreated control tumors.

Data set [5] relates to SK-OV-3 cells. Put plainly: SRB assay in SK-OV-3 cells. The data set is classed as cell-based. To be noted: Homo sapiens, read-out: IC50 ± SD in SK-OV-3 Cells. As to the method:
Comparison of the IC50 values in the parental SK-OV-3 and genetically manipulated SK-OV-3 MDR1-M6/6 cell line allows for the calculation of a relative resistance value, designated Rr. This value is calculated by dividing the IC50 value obtained in the Pgp-expressing SK-OV-3 MDR1-M6/6 cells by the IC50 obtained in the parental SK-OV-3 cells.
as §2, §3

For data set [6], the system named is HeLa cells. In words: SRB assay in HeLa cells. Format: cell-based. To be noted: Homo sapiens, read-out: IC50 ± SD in HeLa. As to the method: as §1, §2, §3

For `COc1ccc(N(C)c2nc(N)nc3[nH]c4ccccc4c23)cc1` [Compound 1], the “Inhibition of Colchicine Binding (% inhibition ± SD)” value (from here on “Inhibition … (% inhibition ± SD)”) in the data set with tubulin is 84 ± 0.50%. For the same molecule, the EC50 (commonly the concentration that produces a half-maximal response) in the data set with A-10 cells is 130 nM. In addition, the IC50 with SK-OV-3 cells [1] is 27.6 ± 1.8 nM; in the data set with MDA-MB-435 cells, 14.7 ± 1.5 nM; in the data set with HeLa WTβIII cells [2], 21.4 ± 3.5 nM; with Bovine brain tubulin, 1400 ± 7 nM; with HeLa cells [3], 21.3 ± 2.2 nM.
In the case of `CSc1ccc(N(C)c2nc(N)nc3[nH]c4ccccc4c23)cc1` [Compound 2], the “Inhibition … (% inhibition ± SD)” value in the data set with tubulin is on record as 67.0 ± 5.0%. In addition, the EC50 with A-10 cells was 1100 nM. Besides, the IC50 with SK-OV-3 cells [1] was 156 ± 16 nM; in the data set with SK-OV-3 MDR1-M6/6 cells, 160 ± 15 nM; in the data set on MDA-MB-435 cells it was 89.1 ± 10 nM; in the data set with HeLa WTβIII cells [2] it was 78.4 ± 4 nM; in the data set on Bovine brain tubulin, 2300 ± 300 nM; with HeLa cells [3], 118 ± 13 nM.
As for `COc1ccc(N(C)c2ncnc3[nH]c4ccccc4c23)cc1` [Compound 3], the “Inhibition … (% inhibition ± SD)” value with tubulin is given as 62.0 ± 4.0%. For the same molecule, the EC50 in the data set on A-10 cells was 1200 nM. Besides, the IC50 is 173 ± 8.6 nM in the data set with SK-OV-3 cells [1]; 224 ± 21 nM in the data set on SK-OV-3 MDR1-M6/6 cells; 130 ± 7.8 nM with MDA-MB-435 cells; 99.5 ± 12 nM in the data set on HeLa WTβIII cells [2]; 2300 ± 400 nM in the data set with Bovine brain tubulin; 142 ± 8.1 nM in the data set on HeLa cells [3].
In the case of `CC(=O)O[C@H]1C(=O)[C@@]2(C)[C@H]([C@H](OC(=O)c3ccccc3)[C@]3(O)C[C@H](OC(=O)[C@H](O)[C@@H](NC(=O)c4ccccc4)c4ccccc4)C(C)=C1C3(C)C)[C@]1(OC(C)=O)CO[C@@H]1C[C@@H]2O` [Paclitaxel, paclitaxel, reference compound], the results for the IC50 with HeLa WTβIII cells [4], with SK-OV-3 cells [5] and with HeLa cells [6] were 24 ± 3 nM, 5 ± 0.6 nM and 2.8 ± 0.4 nM, respectively. For the same molecule, in the data set with MDA-MB-435 tumors, the “Antitumor effects on MDA-MB-435 tumor volume vs control” value is “did not reach statistical significance”.
